Reference: ChEMBL document CHEMBL4229518, “New β-lactam - Tetramic acid hybrids show promising antibacterial activities” (Bioorg Med Chem Lett, 2018)
Converted amounts (≈) assume the structure as drawn. The source made the active and inactive calls. The calls are words filed in the database; no cut-off is given here.

How the values were obtained:
Enterobacter cloacae = assay: Antimicrobial activity against Enterobacter cloacae ATCC 13047 after 18 to 20 hrs by microbroth dilution method; type: functional; conditions: subsp. cloacae ATCC 13047
Acinetobacter baumannii = assay: Antimicrobial activity against Acinetobacter baumannii ATCC 19606 after 18 to 20 hrs by microbroth dilution method; type: functional; conditions: ATCC 19606 = CIP 70.34 = JCM 6841
Pseudomonas aeruginosa = assay: Antimicrobial activity against Pseudomonas aeruginosa PAO1 after 18 to 20 hrs by microbroth dilution method; type: functional
Bacillus subtilis = assay: Antimicrobial activity against Bacillus subtilis ATCC 23857 after 18 to 20 hrs by microbroth dilution method; type: functional
Enterococcus faecalis = assay: Antimicrobial activity against Enterococcus faecalis ATCC 33186 after 18 to 20 hrs by microbroth dilution method; type: functional
Staphylococcus aureus [1] = assay: Antimicrobial activity against methicillin-susceptible Staphylococcus aureus NRS70 after 18 to 20 hrs by microbroth dilution method; type: functional
Klebsiella pneumoniae [2] = assay: Antimicrobial activity against Klebsiella pneumoniae ATCC 33495 after 18 to 20 hrs by microbroth dilution method; type: functional
Proteus mirabilis = assay: Antimicrobial activity against Proteus mirabilis ATCC 25933 after 18 to 20 hrs by microbroth dilution method; type: functional
Staphylococcus aureus [3] = assay: Antimicrobial activity against methicillin-susceptible Staphylococcus aureus ATCC 29213 after 18 to 20 hrs by microbroth dilution method; type: functional
Escherichia coli [4] = assay: Antimicrobial activity against tolC deficient Escherichia coli JW5503-1 after 18 to 20 hrs by microbroth dilution method; type: functional
Escherichia coli [5] = assay: Antimicrobial activity against Escherichia coli BW25113 after 18 to 20 hrs by microbroth dilution method; type: functional
[6] = test system: Stenotrophomonas maltophilia; assay: Antimicrobial activity against Stenotrophomonas maltophilia ATCC 700475 after 18 to 20 hrs by microbroth dilution method; type: functional
Streptococcus pyogenes = assay: Antimicrobial activity against Streptococcus pyogenes ATCC 700294 after 18 to 20 hrs by microbroth dilution method; type: functional; conditions: M1 GAS
Bacillus cereus = assay: Antimicrobial activity against Bacillus cereus ATCC 14579 after 18 to 20 hrs by microbroth dilution method; type: functional
Bacillus anthracis = assay: Antimicrobial activity against Bacillus anthracis Sterne 34F2 after 18 to 20 hrs by microbroth dilution method; type: functional
Streptococcus pneumoniae = assay: Antimicrobial activity against Streptococcus pneumoniae R6 after 18 to 20 hrs by microbroth dilution method; type: functional
Escherichia coli [7] = assay: Antimicrobial activity against Escherichia coli isolate SJ 6 after 18 to 20 hrs by microbroth dilution method; type: functional
Escherichia coli [8] = assay: Antimicrobial activity against Escherichia coli ATCC 35218 expressing TEM-1 beta lactamases after 18 to 20 hrs by microbroth dilution method; type: functional
Escherichia coli [9] = assay: Antimicrobial activity against Escherichia coli isolate SJ 5 after 18 to 20 hrs by microbroth dilution method; type: functional
Escherichia coli [10] = assay: Antimicrobial activity against Escherichia coli isolate SJ 2 after 18 to 20 hrs by microbroth dilution method; type: functional
Klebsiella pneumoniae [11] = assay: Antimicrobial activity against Klebsiella pneumoniae isolate SJ 1 after 18 to 20 hrs by microbroth dilution method; type: functional
Escherichia coli [12] = assay: Antimicrobial activity against Escherichia coli ATCC 25922 after 18 to 20 hrs by microbroth dilution method; type: functional
Escherichia coli [13] = assay: Antimicrobial activity against Escherichia coli isolate SJ 3 after 18 to 20 hrs by microbroth dilution method; type: functional
Klebsiella pneumoniae [14] = assay: Antimicrobial activity against Klebsiella pneumoniae isolate SJ 5 after 18 to 20 hrs by microbroth dilution method; type: functional
Escherichia coli [15] = assay: Antimicrobial activity against Escherichia coli isolate SJ 1 after 18 to 20 hrs by microbroth dilution method; type: functional
Klebsiella pneumoniae [16] = assay: Antimicrobial activity against Klebsiella pneumoniae isolate SJ 3 after 18 to 20 hrs by microbroth dilution method; type: functional
Klebsiella pneumoniae [17] = assay: Antimicrobial activity against Klebsiella pneumoniae isolate SJ 4 after 18 to 20 hrs by microbroth dilution method; type: functional
Klebsiella pneumoniae [18] = assay: Antimicrobial activity against Klebsiella pneumoniae isolate SJ 2 after 18 to 20 hrs by microbroth dilution method; type: functional
Escherichia coli [19] = assay: Induction of proton motive force collapse in Escherichia coli BW25113 at 100 uM by flow cytometry; type: functional, organism-based
Escherichia coli [20] = assay: Antimicrobial activity against Escherichia coli isolate SJ 4 after 18 to 20 hrs by microbroth dilution method; type: functional

SMILES	MIC (Enterobacter cloacae) [µg/mL]	MIC (Acinetobacter baumannii) [µg/mL]	MIC (Pseudomonas aeruginosa) [µg/mL]	MIC (Bacillus subtilis) [µg/mL]	MIC (Enterococcus faecalis) [µg/mL]	MIC (Staphylococcus aureus [1]) [µg/mL]	MIC (Klebsiella pneumoniae [2]) [µg/mL]	MIC (Proteus mirabilis) [µg/mL]	MIC (Staphylococcus aureus [3]) [µg/mL]	MIC (Escherichia coli [4]) [µg/mL]	MIC (Escherichia coli [5]) [µg/mL]	MIC [6] [µg/mL]	MIC (Streptococcus pyogenes) [µg/mL]	MIC (Bacillus cereus) [µg/mL]	MIC (Bacillus anthracis) [µg/mL]	MIC (Streptococcus pneumoniae) [µg/mL]	other results
CC(C)CC1NC(=O)C(C(=O)NCCC(=O)N[C@@H](C(=O)N[C@@H]2C(=O)N3[C@@H]2SC(C)(C)[C@@H]3C(=O)O)c2ccccc2)=C1O (stereo partly specified)	> 200	200 (≈ 332 µM)	25 (≈ 41.6 µM)	3.13 (≈ 5.2 µM)	50 (≈ 83.1 µM)	50 (≈ 83.1 µM)	200 (≈ 332 µM)	6.25 (≈ 10.4 µM)	0.78 (≈ 1.3 µM)	25 (≈ 41.6 µM)	50 (≈ 83.1 µM)	50 (≈ 83.1 µM)	0.78 (≈ 1.3 µM)	25 (≈ 41.6 µM)	3.13 (≈ 5.2 µM)	< 0.2	–
CO[C@@]1(NC(=O)CCCC(=O)C2=C(O)[C@@H](CCC(=O)O)NC2=O)C(=O)N2C(C(=O)O)=C(CSc3nnnn3C)CS[C@@H]21	–	> 200	> 200	–	–	–	200 (≈ 320 µM)	50 (≈ 79.9 µM)	–	200 (≈ 320 µM)	200 (≈ 320 µM)	–	–	–	–	–	MIC (Escherichia coli [7]): > 200 µg/mL; MIC (Escherichia coli [8]): 50 µg/mL (≈ 79.9 µM); MIC (Escherichia coli [9]): > 200 µg/mL; MIC (Escherichia coli [10]): 200 µg/mL (≈ 320 µM); MIC (Klebsiella pneumoniae [11]): 100 µg/mL (≈ 160 µM); MIC (Escherichia coli [12]): 200 µg/mL (≈ 320 µM); MIC (Escherichia coli [13]): 200 µg/mL (≈ 320 µM); MIC (Klebsiella pneumoniae [14]): > 200 µg/mL; MIC (Escherichia coli [15]): 200 µg/mL (≈ 320 µM); MIC (Klebsiella pneumoniae [16]): 200 µg/mL (≈ 320 µM); MIC (Klebsiella pneumoniae [17]): 100 µg/mL (≈ 160 µM); MIC (Klebsiella pneumoniae [18]): 25 µg/mL (≈ 40 µM); Activity (Escherichia coli [19]): inactive; MIC (Escherichia coli [20]): > 200 µg/mL
CC(C)CC1NC(=O)C(C(=O)N[C@@H](C(=O)N[C@@H]2C(=O)N3[C@@H]2SC(C)(C)[C@@H]3C(=O)O)c2ccccc2)=C1O (stereo partly specified)	> 200	50 (≈ 94.2 µM)	12.5 (≈ 23.6 µM)	3.13 (≈ 5.9 µM)	25 (≈ 47.1 µM)	25 (≈ 47.1 µM)	200 (≈ 377 µM)	12.5 (≈ 23.6 µM)	0.78 (≈ 1.47 µM)	6.25 (≈ 11.8 µM)	50 (≈ 94.2 µM)	6.25 (≈ 11.8 µM)	0.39 (≈ 0.735 µM)	12.5 (≈ 23.6 µM)	3.13 (≈ 5.9 µM)	0.39 (≈ 0.735 µM)	–
CC(C)CC1NC(=O)C(C(=O)NCCCCCC(=O)N[C@@H](C(=O)N[C@@H]2C(=O)N3[C@@H]2SC(C)(C)[C@@H]3C(=O)O)c2ccccc2)=C1O (stereo partly specified)	> 200	100 (≈ 155 µM)	50 (≈ 77.7 µM)	3.13 (≈ 4.86 µM)	25 (≈ 38.8 µM)	50 (≈ 77.7 µM)	> 200	6.25 (≈ 9.71 µM)	0.78 (≈ 1.21 µM)	12.5 (≈ 19.4 µM)	50 (≈ 77.7 µM)	25 (≈ 38.8 µM)	< 0.2	50 (≈ 77.7 µM)	3.13 (≈ 4.86 µM)	< 0.2	–
CC1=C(C(=O)O)N2C(=O)[C@@H](NC(=O)[C@H](NC(=O)CCNC(=O)C3=C(O)C(CC(C)C)NC3=O)c3ccccc3)[C@H]2SC1 (stereo partly specified)	> 200	> 200	> 200	6.25 (≈ 10.4 µM)	> 200	50 (≈ 83.4 µM)	200 (≈ 334 µM)	50 (≈ 83.4 µM)	3.13 (≈ 5.22 µM)	200 (≈ 334 µM)	200 (≈ 334 µM)	> 200	12.5 (≈ 20.8 µM)	> 200	100 (≈ 167 µM)	12.5 (≈ 20.8 µM)	–
CC(C)CC1NC(=O)C(C(=O)NCCC(=O)N[C@@H](C(=O)N[C@@H]2C(=O)N3C(C(=O)O)=C(Cl)CS[C@H]23)c2ccccc2)=C1O (stereo partly specified)	> 200	50 (≈ 80.6 µM)	> 200	0.78 (≈ 1.26 µM)	100 (≈ 161 µM)	25 (≈ 40.3 µM)	50 (≈ 80.6 µM)	1.56 (≈ 2.52 µM)	0.78 (≈ 1.26 µM)	12.5 (≈ 20.2 µM)	12.5 (≈ 20.2 µM)	> 200	1.56 (≈ 2.52 µM)	> 200	12.5 (≈ 20.2 µM)	0.39 (≈ 0.629 µM)	–
CC1=C(C(=O)O)N2C(=O)[C@@H](NC(=O)[C@H](N)c3ccccc3)[C@H]2SC1 [CEPHALEXIN ANHYDROUS]	> 200	> 200	> 200	0.78 (≈ 2.25 µM)	200 (≈ 576 µM)	> 200	50 (≈ 144 µM)	50 (≈ 144 µM)	3.13 (≈ 9.01 µM)	100 (≈ 288 µM)	50 (≈ 144 µM)	> 200	3.13 (≈ 9.01 µM)	> 200	3.13 (≈ 9.01 µM)	6.25 (≈ 18 µM)	–
